Test results published in patent US20230365546A1, “5-SUBSTITUTED INDOLE 3-AMIDE DERIVATIVES, PREPARATION METHOD AND USE THEREOF” (ORIGIANT PHARMACEUTICAL CO., LTD, priority 2020, published 2023).

Key:
Experiment in all cases: Kinase Profiler 10 μM panel
[1] = biological target: PI3 Kinase (p110a(H1047R)/p85a)(m) (Mus musculus (Mouse), UniProt P42337, H1047R)
Method: (§1) In vitro kinase assays were conducted using Kinase Profiler services provided by Eurofins. The experimental method was as follows: the small molecule compound to be tested (0.001-10 μM), the protein kinase to be tested were incubated with a buffer containing substrate, 10 mM magnesium acetate, and [γ-^33P-ATP], the reaction was started by adding Mg\TPmix, after incubation for a period of time at room temperature, a 3% phosphate solution was added to the buffer to stop the reaction. Subsequently, 10 μL of the reaction mixture was quantitatively pipetted onto P30 filter paper, which was washed three times with 75 mM phosphate solution and then once with methanol. The P30 filter paper was air-dried and scintillation fluid was added for scintillation counting.

Flt4(h) = Flt4(h) (Homo sapiens (Human), UniProt P35916)
Method: as §1

Abl(Y253F)(h) = Abl(Y253F)(h) (Homo sapiens (Human), UniProt P00519, Y253F)
Method: as §1

[2] = biological target: PI3 Kinase (p110a/p85a)(m) (Mus musculus (Mouse), UniProt P42337)
Method: as §1

GCK(h) = GCK(h) (Homo sapiens (Human), UniProt Q12851)
Method: as §1

ALK6(h) = ALK6(h) (Homo sapiens (Human), UniProt O00238)
Method: as §1

A-Raf(h) = A-Raf(h) (Homo sapiens (Human), UniProt P10398)
Method: as §1

PKAcβ(h) = PKAcβ(h) (Homo sapiens (Human), UniProt P22694)
Method: as §1

PKCα(h) = PKCα(h) (Homo sapiens (Human), UniProt P17252)
Method: as §1

IRAK1(h) = IRAK1(h) (Homo sapiens (Human), UniProt P51617)
Method: as §1

PKCι(h) = PKCι(h) (Homo sapiens (Human), UniProt P41743)
Method: as §1

Lyn(h) = Lyn(h) (Homo sapiens (Human), UniProt P07948)
Method: as §1

RIPK2(h) = RIPK2(h) (Homo sapiens (Human), UniProt O43353)
Method: as §1

CDK4/cyclinD3(h) = CDK4/cyclinD3(h) (Homo sapiens (Human), UniProt P11802)
Method: as §1

Rsk1(r) = Rsk1(r) (Rattus norvegicus (Rat), UniProt Q63531)
Method: as §1

CHK2(I157T)(h) = CHK2(I157T)(h) (Homo sapiens (Human), UniProt O96017, I157T)
Method: as §1

Met(D1246N)(h) = Met(D1246N)(h) (Homo sapiens (Human), UniProt P08581, D1228N)
Method: as §1

SIK3(h) = SIK3(h) (Homo sapiens (Human), UniProt Q9Y2K2)
Method: as §1

cKit(h) = cKit(h) (Homo sapiens (Human), UniProt P10721)
Method: as §1

c-RAF(h) = c-RAF(h) (Homo sapiens (Human), UniProt P04049, Y340D/Y341D)
Method: as §1

MSK1(h) = MSK1(h) (Homo sapiens (Human), UniProt O75582)
Method: as §1

Tec(h) activated = Tec(h) activated (Homo sapiens (Human), UniProt P42680)
Method: as §1

TGFBR1(h) = TGFBR1(h) (Homo sapiens (Human), UniProt P36897)
Method: as §1

DMPK(h) = DMPK(h) (Homo sapiens (Human), UniProt Q09013)
Method: as §1

NEK9(h) = NEK9(h) (Homo sapiens (Human), UniProt Q8TD19)
Method: as §1

NIM1(h) = NIM1(h) (Homo sapiens (Human), UniProt Q8IY84)
Method: as §1

TSSK3(h) = TSSK3(h) (Homo sapiens (Human), UniProt Q96PN8)
Method: as §1

PAK1(h) = PAK1(h) (Homo sapiens (Human), UniProt Q13153)
Method: as §1

PASK(h) = PASK(h) (Homo sapiens (Human), UniProt Q96RG2)
Method: as §1

Wee1(h) = Wee1(h) (Homo sapiens (Human), UniProt P30291)
Method: as §1

PhKγ2(h) = PhKγ2(h) (Homo sapiens (Human), UniProt P15735)
Method: as §1

[3] = biological target: PI3 Kinase (p110a(E542K)/p85a)(h) (Homo sapiens (Human), UniProt P42336, E542K)
Method: as §1

[4] = biological target: PI3 Kinase (p110a(E542K)/p85a)(m) (Mus musculus (Mouse), UniProt P42337, E542K)
Method: as §1

Sequence of PI3 Kinase (p110a(E542K)/p85a)(h) (P42336 whole entry E542K): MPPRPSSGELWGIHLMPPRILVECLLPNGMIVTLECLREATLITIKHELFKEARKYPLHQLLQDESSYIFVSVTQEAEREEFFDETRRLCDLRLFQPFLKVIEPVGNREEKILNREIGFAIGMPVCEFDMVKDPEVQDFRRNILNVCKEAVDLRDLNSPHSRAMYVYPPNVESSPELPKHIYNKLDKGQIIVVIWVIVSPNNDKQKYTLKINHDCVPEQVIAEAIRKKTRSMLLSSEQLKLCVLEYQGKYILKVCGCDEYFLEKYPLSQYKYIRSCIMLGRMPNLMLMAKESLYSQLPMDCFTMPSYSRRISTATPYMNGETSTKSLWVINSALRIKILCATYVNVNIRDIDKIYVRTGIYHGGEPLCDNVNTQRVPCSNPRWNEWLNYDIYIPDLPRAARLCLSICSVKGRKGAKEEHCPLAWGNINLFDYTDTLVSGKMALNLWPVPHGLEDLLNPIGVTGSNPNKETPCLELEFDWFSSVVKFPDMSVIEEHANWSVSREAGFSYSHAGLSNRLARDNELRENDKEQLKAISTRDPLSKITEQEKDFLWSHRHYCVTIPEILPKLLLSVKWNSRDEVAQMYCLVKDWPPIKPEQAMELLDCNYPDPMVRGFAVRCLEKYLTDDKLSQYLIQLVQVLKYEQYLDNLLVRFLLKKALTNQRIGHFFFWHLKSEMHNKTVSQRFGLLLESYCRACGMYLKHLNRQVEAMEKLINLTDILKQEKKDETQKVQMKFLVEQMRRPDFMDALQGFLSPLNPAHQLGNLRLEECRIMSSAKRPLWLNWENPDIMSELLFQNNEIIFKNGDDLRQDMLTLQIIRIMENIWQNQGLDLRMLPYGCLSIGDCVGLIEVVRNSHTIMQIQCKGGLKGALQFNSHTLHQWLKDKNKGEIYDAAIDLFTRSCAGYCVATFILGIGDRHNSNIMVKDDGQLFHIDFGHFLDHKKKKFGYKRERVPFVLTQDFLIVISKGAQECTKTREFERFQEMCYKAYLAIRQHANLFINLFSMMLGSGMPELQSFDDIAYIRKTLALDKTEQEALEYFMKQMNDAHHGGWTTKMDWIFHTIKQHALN
Sequence of PI3 Kinase (p110a(E542K)/p85a)(h) (P27986 whole entry partner): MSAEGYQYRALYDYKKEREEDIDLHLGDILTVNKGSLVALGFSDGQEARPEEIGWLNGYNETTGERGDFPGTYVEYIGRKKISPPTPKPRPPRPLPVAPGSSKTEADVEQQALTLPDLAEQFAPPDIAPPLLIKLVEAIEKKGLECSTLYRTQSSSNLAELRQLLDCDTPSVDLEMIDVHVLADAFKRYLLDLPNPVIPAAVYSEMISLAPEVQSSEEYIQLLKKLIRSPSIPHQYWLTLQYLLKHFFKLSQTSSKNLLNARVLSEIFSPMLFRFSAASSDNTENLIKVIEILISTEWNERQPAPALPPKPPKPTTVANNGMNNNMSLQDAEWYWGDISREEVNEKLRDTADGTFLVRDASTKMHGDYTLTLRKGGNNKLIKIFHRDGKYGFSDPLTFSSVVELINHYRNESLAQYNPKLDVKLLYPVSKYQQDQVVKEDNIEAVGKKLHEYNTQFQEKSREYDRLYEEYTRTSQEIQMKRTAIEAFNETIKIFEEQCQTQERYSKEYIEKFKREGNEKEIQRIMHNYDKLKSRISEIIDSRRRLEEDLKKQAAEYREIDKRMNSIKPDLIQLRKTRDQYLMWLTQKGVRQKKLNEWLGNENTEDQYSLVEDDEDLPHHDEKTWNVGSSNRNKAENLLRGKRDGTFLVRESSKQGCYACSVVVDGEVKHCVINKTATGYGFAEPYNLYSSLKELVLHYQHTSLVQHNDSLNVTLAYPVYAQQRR
Sequence of RIPK2(h) (O43353 whole entry): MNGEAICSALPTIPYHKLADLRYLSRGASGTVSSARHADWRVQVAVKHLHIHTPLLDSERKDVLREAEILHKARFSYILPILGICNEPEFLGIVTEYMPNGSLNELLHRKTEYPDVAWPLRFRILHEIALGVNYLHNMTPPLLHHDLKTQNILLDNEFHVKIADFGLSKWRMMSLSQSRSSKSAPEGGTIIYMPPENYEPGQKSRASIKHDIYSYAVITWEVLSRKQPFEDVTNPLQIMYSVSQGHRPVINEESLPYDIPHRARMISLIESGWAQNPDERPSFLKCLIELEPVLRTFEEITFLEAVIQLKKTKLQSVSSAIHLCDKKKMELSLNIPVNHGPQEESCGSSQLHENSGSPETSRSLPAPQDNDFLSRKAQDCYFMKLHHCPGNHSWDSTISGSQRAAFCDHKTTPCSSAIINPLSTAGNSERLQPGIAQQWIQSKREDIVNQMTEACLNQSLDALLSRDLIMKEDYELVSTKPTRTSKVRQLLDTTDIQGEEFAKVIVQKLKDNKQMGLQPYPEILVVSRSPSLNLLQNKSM
Sequence of SIK3(h) (Q9Y2K2 whole entry): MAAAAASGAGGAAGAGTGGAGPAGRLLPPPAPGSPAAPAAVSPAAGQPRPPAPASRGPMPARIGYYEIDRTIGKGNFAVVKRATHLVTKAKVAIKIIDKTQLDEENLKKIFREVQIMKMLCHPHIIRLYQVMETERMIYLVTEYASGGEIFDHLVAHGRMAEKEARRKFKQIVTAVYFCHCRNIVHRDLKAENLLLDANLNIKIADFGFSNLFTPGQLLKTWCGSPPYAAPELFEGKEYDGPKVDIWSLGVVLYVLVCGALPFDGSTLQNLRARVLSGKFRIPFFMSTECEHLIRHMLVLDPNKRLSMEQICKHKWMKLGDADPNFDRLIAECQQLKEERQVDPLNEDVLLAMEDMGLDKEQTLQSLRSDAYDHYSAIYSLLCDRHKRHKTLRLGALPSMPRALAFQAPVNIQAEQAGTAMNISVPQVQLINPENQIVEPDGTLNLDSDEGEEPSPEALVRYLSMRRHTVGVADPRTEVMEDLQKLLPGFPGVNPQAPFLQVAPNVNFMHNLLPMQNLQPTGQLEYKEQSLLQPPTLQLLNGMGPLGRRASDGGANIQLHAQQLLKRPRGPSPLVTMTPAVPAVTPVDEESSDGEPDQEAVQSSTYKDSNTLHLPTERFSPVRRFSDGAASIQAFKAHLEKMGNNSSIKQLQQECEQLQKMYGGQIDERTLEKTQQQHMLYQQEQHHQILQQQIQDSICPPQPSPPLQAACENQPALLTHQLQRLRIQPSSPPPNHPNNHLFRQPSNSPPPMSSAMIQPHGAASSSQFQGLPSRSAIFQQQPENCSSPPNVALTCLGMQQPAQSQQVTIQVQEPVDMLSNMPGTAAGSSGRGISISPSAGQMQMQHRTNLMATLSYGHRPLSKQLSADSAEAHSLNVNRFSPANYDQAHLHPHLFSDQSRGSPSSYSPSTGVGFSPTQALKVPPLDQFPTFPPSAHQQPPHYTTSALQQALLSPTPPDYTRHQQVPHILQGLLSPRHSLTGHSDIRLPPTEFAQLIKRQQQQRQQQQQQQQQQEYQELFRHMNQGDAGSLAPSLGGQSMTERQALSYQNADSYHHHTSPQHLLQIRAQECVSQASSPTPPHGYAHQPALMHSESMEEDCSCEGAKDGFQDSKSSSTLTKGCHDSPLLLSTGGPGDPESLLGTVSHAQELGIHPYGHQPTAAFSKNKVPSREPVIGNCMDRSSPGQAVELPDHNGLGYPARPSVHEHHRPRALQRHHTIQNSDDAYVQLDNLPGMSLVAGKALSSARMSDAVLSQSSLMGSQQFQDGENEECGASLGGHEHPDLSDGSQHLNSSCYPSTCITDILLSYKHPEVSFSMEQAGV
Sequence of c-RAF(h) (P04049 306-648 Y340D/Y341D limits assumed): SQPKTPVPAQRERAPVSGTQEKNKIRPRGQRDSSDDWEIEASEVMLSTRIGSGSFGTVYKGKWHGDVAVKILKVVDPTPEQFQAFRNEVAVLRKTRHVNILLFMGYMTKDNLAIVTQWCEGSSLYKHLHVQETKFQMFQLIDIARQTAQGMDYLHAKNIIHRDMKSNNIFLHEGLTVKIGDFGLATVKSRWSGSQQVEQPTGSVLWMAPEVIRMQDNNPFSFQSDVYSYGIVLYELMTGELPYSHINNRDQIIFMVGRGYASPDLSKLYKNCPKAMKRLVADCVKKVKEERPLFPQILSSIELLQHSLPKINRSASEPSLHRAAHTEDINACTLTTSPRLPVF
Sequence of Met(D1246N)(h) (P08581 956-1390 D1228N limits assumed): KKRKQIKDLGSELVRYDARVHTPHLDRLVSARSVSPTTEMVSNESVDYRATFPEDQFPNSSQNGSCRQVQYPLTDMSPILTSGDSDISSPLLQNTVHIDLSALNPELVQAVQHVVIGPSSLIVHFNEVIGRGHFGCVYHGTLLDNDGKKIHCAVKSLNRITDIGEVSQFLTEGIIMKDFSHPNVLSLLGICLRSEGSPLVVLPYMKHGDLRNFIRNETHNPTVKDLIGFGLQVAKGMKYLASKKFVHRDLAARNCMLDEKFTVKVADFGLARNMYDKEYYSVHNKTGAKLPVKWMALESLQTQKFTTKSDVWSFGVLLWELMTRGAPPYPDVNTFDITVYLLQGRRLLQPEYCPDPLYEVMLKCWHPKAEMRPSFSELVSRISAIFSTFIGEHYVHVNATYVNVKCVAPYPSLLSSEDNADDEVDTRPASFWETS
Sequence of TSSK3(h) (Q96PN8 whole entry): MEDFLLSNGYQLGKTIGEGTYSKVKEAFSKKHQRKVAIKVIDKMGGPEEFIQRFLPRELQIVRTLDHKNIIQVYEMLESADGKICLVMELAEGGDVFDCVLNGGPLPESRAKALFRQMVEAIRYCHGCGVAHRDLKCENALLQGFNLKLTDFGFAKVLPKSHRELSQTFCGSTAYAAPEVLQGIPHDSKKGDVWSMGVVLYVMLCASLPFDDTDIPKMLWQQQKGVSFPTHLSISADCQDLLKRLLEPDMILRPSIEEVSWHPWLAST

## C[C@H](NC(=O)c1cn(C)c2ccc(-c3ccn4nc(NC(=O)C5CC5)nc4c3)cc12)c1cccc(F)c1 [Compound 94, (S)-5-(2-(cyclopropanecarboxamido)-[1,2,4]triazolo[1,5-a]pyridin-7-yl)-N-(1-(3-fluorophenyl)ethyl)-1-methyl-1H-indole-3-carboxamide]
[1]
  Inhibition ratio/%: 47%
Flt4(h)
  Inhibition ratio/%: 34%
Abl(Y253F)(h)
  Inhibition ratio/%: 23%
[2]
  Inhibition ratio/%: −16%
GCK(h)
  Inhibition ratio/%: −6%
ALK6(h)
  Inhibition ratio/%: −5%
A-Raf(h)
  Inhibition ratio/%: 10%
PKAcβ(h)
  Inhibition ratio/%: 40%
PKCα(h)
  Inhibition ratio/%: 16%
IRAK1(h)
  Inhibition ratio/%: 23%
PKCι(h)
  Inhibition ratio/%: 54%
Lyn(h)
  Inhibition ratio/%: 55%
RIPK2(h)
  Inhibition ratio/%: −7%
CDK4/cyclinD3(h)
  Inhibition ratio/%: 4%
Rsk1(r)
  Inhibition ratio/%: 20%
CHK2(I157T)(h)
  Inhibition ratio/%: 61%
Met(D1246N)(h)
  Inhibition ratio/%: −11%
SIK3(h)
  Inhibition ratio/%: 47%
cKit(h)
  Inhibition ratio/%: 21%
c-RAF(h)
  Inhibition ratio/%: −13%
MSK1(h)
  Inhibition ratio/%: −20%
Tec(h) activated
  Inhibition ratio/%: −20%
TGFBR1(h)
  Inhibition ratio/%: −3%
DMPK(h)
  Inhibition ratio/%: −2%
NEK9(h)
  Inhibition ratio/%: −10%
NIM1(h)
  Inhibition ratio/%: 10%
TSSK3(h)
  Inhibition ratio/%: 0%
PAK1(h)
  Inhibition ratio/%: 18%
PASK(h)
  Inhibition ratio/%: 53%
Wee1(h)
  Inhibition ratio/%: 1%
PhKγ2(h)
  Inhibition ratio/%: 48%
[3]
  Inhibition ratio/%: −4%
[4]
  Inhibition ratio/%: −1%

## C[C@H](NC(=O)c1c[nH]c2ccc(-c3ccc4nc(NC(=O)C5CC5)sc4c3)cc12)c1cccc(F)c1 [Compound 34, (S)-5-(2-(cyclopropanecarboxamido)benzo[d]thiazol-6-yl)-N-(1-(3-fluorophenyl)ethyl)-1H-indole-3-carboxamide]
[1]
  Inhibition ratio: 17%
Flt4(h)
  Inhibition ratio: 93%
Abl(Y253F)(h)
  Inhibition ratio: 95%
[2]
  Inhibition ratio: 43%
GCK(h)
  Inhibition ratio: 62%
ALK6(h)
  Inhibition ratio: −4%
A-Raf(h)
  Inhibition ratio: −1%
PKAcβ(h)
  Inhibition ratio: −4%
PKCα(h)
  Inhibition ratio: 6%
IRAK1(h)
  Inhibition ratio: 32%
PKCι(h)
  Inhibition ratio: −4%
Lyn(h)
  Inhibition ratio: 52%
RIPK2(h)
  Inhibition ratio: 67%
CDK4/cyclinD3(h)
  Inhibition ratio: −5%
Rsk1(r)
  Inhibition ratio: 45%
CHK2(I157T)(h)
  Inhibition ratio: 24%
Met(D1246N)(h)
  Inhibition ratio: 86%
SIK3(h)
  Inhibition ratio: 23%
cKit(h)
  Inhibition ratio: 4%
c-RAF(h)
  Inhibition ratio: 15%
MSK1(h)
  Inhibition ratio: 53%
Tec(h) activated
  Inhibition ratio: 17%
TGFBR1(h)
  Inhibition ratio: 7%
DMPK(h)
  Inhibition ratio: 10%
NEK9(h)
  Inhibition ratio: 13%
NIM1(h)
  Inhibition ratio: −19%
TSSK3(h)
  Inhibition ratio: −6%
PAK1(h)
  Inhibition ratio: 4%
PASK(h)
  Inhibition ratio: −25%
Wee1(h)
  Inhibition ratio: −1%
PhKγ2(h)
  Inhibition ratio: 5%
[3]
  Inhibition ratio: 38%
[4]
  Inhibition ratio: 33%
